Values of other authors as cited in PMC8465315, “Molecular Umbrella as a Nanocarrier for Antifungals” (Molecules, 2021).

Set-up: method as in PMID 15593345
Conditions: in vitro; cited from earlier work

**Q.** For `C=C1C[C@H](N)[C@H](C(=O)O)C1` [BAY 10-8888], which “metabolism by liver microsomes” value is on record?
**A.** The value was “not metabolized”.
